Patent US20220054588A1, “USE OF SAP FOR THE TREATMENT OF EUROTIOMYCETES FUNGI INFECTIONS” (HUMANITAS MIRASOLE S.P.A., priority 2018, published 2022)

System: A. fumigatus
Assay: Therapy of invasive aspergillosis in cyclophosphamide-immunosuppressed mice (survival, lung CFU)
Type: in vivo
Conditions: for MST / survival: 4 mg/Kg i.p. at 2 and 24 h; for survival: cyclophosphamide-treated mice
Experimental: FIG. 12 depicts the therapeutic efficacy of SAP in treatment of invasive aspergillosis. a) b) c) survival of transiently immunosuppressed wt mice after injection with the indicated doses of AF conidia. The curve of untreated mice (n=3) with cyclophosphamide is also shown (a). Human SAP (4 mg/Kg) was injected at 2 h and 24 h after infection. a) AF 5.10^7, n=17; AF 5.10^7+SAP, n=15; b) AF 1.10^7, n=7; AF 1.10^7+SAP, n=8; c) AF 5.10^6, n=8; AF 5.10^6+SAP, n=10.***, P<0.005 SAP-treated vs. saline (Mantel-Cox test). One-way ANOVA, P<0.0001. d) lung CFU in mice treated with cyclophosphamide and infected with 1.10^7 AF conidia.*, P<0.05 (Mann-Whitney test). e) quantitative analysis of AF viability performed using a resazurin-based assay. Plasma (30%) from wt and Apcs^−/− mice were incubated (1 min) with 1.5×10^5 AF conidia pre-opsonized or not with SAP. Results are mean±SD of red fluorescence (excitation/emission 535/580-610 nm) intensity of the resazurin once reduced to resorufin within viable cells. Effect of Posaconazole (POC; 1 μM) exposure is also shown. Results are mean±SEM relative to the condition without serum (grey symbols) of two experiments performed with n=10 mice/group. […] AF viability assay performed in sera depleted from complement components. Figure summarizes one experiment out of 5 also conducted with serum 10%. Mean±SD.*, P<0.05; **, P<0.01 (unpaired t-test). g) and h) FACS analysis of MAC deposition on AF conidia (1×10^7) in presence of sera depleted from complement components (e) and the effect of SAP (f). Mean±SEM of 2 experiments performed out of 4. e, f,*, P<0.05;**, P<0.01;***, P<0.005;****, P<0.001; (Mann-Whitney test).
FIG. 13 depicts the therapeutic efficacy of SAP in treatment of invasive aspergillosis alone or in combination with posaconazole. Survival of transiently cyclophosphamide-immunosuppressed mice after injection with 5×10^7 conidia. Human SAP (4 mg/Kg) and Posaconazole (POS; 1.6 mg/Kg) were injected at 16 h and 40 h after infection. AF 5.10^7+ saline, n=9; AF 5.10^7+SAP, n=8; AF 5.10^7+POS, n=9; AF 5.10^7+SAP+POS, n=8. P<0.01, saline vs. hSAP; P<0.005, saline vs. POS; P<0.0005, saline vs. hSAP+POS; P<0.05, POS vs. hSAP+POS; (Mantel-Cox test).
The growth and culture conditions of A. fumigatus and A. Flavus conidia were as described (Garlanda et al., 2002). For intratracheal (i.t.) injection, mice were anesthetized by i.p. injection of ketamine (100 mg/Kg; i.p.) and xylazine (10 mg/Kg i.p.). After surgical exposure, a volume of 50 μl PBS^2+, pH 7.4, containing 1×10^8 or 5×10^7 resting conidia (>95% viable, as determined by serial dilution and plating of the inoculum on Sabouraud dextrose agar) were delivered into trachea under direct vision using a catheter connected to the outlet of a micro-syringe (Terumo, Belgium). Survival to infection was daily monitored for 10d later. Dying mice were euthanized after evaluation of the following clinical parameters: body temperature dropping, intermittent respiration, solitude presence, sphere posture, fur erection, non-responsive alertness, and inability to ascent when induced.
In therapy experiments, immunosuppression was induced by i.p. injection of 150 mg/Kg cyclophosphamide (150μl per mouse of 20 mg/ml solution) 2d before infection. Native human SAP (Merck-Millipore) was dialysed in PBS (pH 7.4) in order to eliminate sodium azide and i.p. injected at the dose of 4 mg/Kg at 2 and 24 h after infection or in combination with Posaconazole (POS; 1.6 mg/Kg) at 16 h and 40 h after infection.
Lung homogenates and analysis. Lungs were removed 16 h after infection and homogenized in 1 ml PBS, pH 7.4, containing 0.01% (vol/vol) Tween-20® (Merck-Millipore) and protease inhibitors. Samples were serially diluted 1:10 in PBS and plated on Sabouraud dextrose agar for blinded CFU counting. […]

## human native SAP: Native SAP from human serum purchased by Merck-Millipore; Serum Amyloid P component, SEQ ID NO: 1
1×10^7 conidia
  MST: > 10
  survival: 62.5%
5×10^6 conidia
  MST: > 10
  survival: 80%
5×10^7 conidia
  MST: 4
  survival: 20%
16 h, 1×10^7 conidia, SAP-treated mice
  lung fungal burden, median: 2.0×10^6 CFU
16 h, 1×10^7 conidia, SAP-treated vs. untreated
  reduction in fungal burden in lung: 12 fold
